In this assay the target is T1, HCV NS3 helicase (Hepatitis C virus genotype 1b, UniProt P26663).
T1 construct: full-length NS3 (1-631), purified at Array BioPharma
Kind of assay: HCV Helicase Prompt FRET Assay (Example A). It is filed as biochemical. Conditions: read-out: IC50 Activity. In short, it runs like this: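 Full-length NS3 (1-631), 5 or 6 nM, preincubated 5 min with compound, then unwinds 50 nM FAM/BHQ-1 duplex substrate with 250 nM capture strand and 300 μM ATP in 25 mM MOPS pH 7.0, 1.5 mM MgCl2, 0.005% Triton X-100, 2% DMSO. Fluorescence (485/535 nm) followed ~30 min at room temperature; IC50 from initial rates by 4- or 5-parameter fit.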

[1] abbreviates: Table 33, compounds made using Scheme 50.
Where [2] appears, read: Table 34, compounds made using Schemes 51-52.
The mark [3] stands for this setting: Table 35, compounds made using Scheme 53.
The mark [4] stands for this setting: Table 36, compounds made using Scheme 54.
[5] abbreviates: Table 38, compounds made using Scheme 56, Scheme 57 and Scheme 61.
Setting [6] is: HCV NS3 helicase, tables do not say whether Example A or Example B assay.

Like-named read-outs stand apart in the source and are kept apart here.

As a reminder, the IC50 is the concentration that gives 50% inhibition.

T1 sequence (P26663 1027-1657): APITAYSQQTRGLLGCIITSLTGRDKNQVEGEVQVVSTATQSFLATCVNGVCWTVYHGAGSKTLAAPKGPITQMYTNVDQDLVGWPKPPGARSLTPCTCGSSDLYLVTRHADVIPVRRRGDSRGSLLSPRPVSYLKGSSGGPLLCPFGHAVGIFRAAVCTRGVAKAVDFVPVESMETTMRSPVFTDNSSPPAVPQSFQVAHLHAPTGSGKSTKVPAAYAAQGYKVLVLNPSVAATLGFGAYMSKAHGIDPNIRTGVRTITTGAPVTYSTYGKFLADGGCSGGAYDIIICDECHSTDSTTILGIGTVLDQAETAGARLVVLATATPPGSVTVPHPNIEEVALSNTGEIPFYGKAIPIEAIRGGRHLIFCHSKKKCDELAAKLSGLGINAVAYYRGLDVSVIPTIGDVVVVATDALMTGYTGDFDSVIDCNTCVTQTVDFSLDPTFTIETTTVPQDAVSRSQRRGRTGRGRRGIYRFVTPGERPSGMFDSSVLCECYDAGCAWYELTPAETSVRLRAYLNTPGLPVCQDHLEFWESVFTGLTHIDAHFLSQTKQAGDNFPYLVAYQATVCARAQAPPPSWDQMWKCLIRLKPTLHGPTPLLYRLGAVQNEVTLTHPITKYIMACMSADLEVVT

As to `O=C(O)Cc1cn(Cc2csc3ccc(Cl)cc23)c2cc(-c3ccc4nc[nH]c4c3)ccc12` [Example 668], under setting [1], the IC50 is 10 to 50 µM. On the same count and under the same terms, as for `O=C(O)Cc1cn(Cc2csc3ccc(Cl)cc23)c2cc(-c3ccc4nn[nH]c4c3)ccc12` [Example 669], the figure is 10 to 50 µM.

With `Cc1cc([N+](=O)[O-])ccc1-n1cc(C(NC(=O)c2ccccc2)C(=O)O)c2ccccc21` (stereo not drawn) [Example 670], the IC50 under setting [2] fell in the range of 10 to 50 µM. Consider `Cc1cc([N+](=O)[O-])ccc1-n1cc(C(NC(=O)C2CCCN2C(=O)OC(C)(C)C)C(=O)O)c2ccccc21` (stereo not drawn) [Example 671], for which the IC50 under setting [2] was 10 to 50 µM. The same measure, in the same setting: as for `Cc1cc([N+](=O)[O-])ccc1-n1cc(C(NC(=O)C2CCCN2)C(=O)O)c2ccccc21` (stereo not drawn) [Example 672], the figure is > 50 µM; as for `Cc1cc([N+](=O)[O-])ccc1-n1cc(C(NC(=O)C2CCN(C(=O)OC(C)(C)C)CC2)C(=O)O)c2ccccc21` (stereo not drawn) [Example 673], 10 to 50 µM. As for `Cc1cc([N+](=O)[O-])ccc1-n1cc(C(NC(=O)C2CCNCC2)C(=O)O)c2ccccc21` (stereo not drawn) [Example 674], the IC50 under setting [2] was > 50 µM. On the same count and under the same terms, as for `Cn1cc(CC(=O)O)c2ccc(-c3cc(N)cc(N)c3)cc21` [Example 675], the figure is > 50 µM.

On to `Nc1cc(N)cc(-c2ccc3c(CC(=O)O)cn(Cc4ccccc4)c3c2)c1` [Example 676], for which the IC50 under setting [2] lay in the range of 10 to 50 µM.

Regarding `CC(C)c1ccc(Cn2cc(CC(=O)NO)c3ccccc32)cc1` [Example 677], the IC50 under setting [2] lay within 10 to 50 µM.

For the compound `O=C(O)Cc1cn(Cc2csc3ccccc23)c2ccc(Br)cc12` [Example 678], under setting [2], the IC50 was in the range of 10 to 50 µM. On the same count and under the same terms, then `Nc1cc(N)cc(-c2ccc3c(CC(=O)O)cn(Cc4csc5ccccc45)c3c2)c1` [Example 679], with < 10 µM. For the compound `Nc1cc(N)cc(-c2ccc3c(CC(=O)NOCc4ccccc4)cn(Cc4csc5ccc(Cl)cc45)c3c2)c1` [Example 680], the IC50 under setting [2] is < 10 µM. Still for that read-out and setting: then `CC(C)(C)ONC(=O)Cc1cn(Cc2csc3ccc(Cl)cc23)c2cc(-c3cc(N)cc(N)c3)ccc12` [Example 683], with 10 to 50 µM; and `CC(C)c1ccc(Cn2cc(C(Cc3ccccc3)C(=O)NO)c3cc(Br)ccc32)cc1` (stereo not drawn) [Example 684], with < 10 µM; and `CC(C)c1ccc(CC(C(=O)O)c2cn(Cc3ccc(C(C)C)cc3)c3ccc(Br)cc23)cc1` (stereo not drawn) [Example 685], with < 10 µM. Still for that read-out and setting: as for `CC(C)c1ccc(Cn2cc(C(Cc3ccccc3)C(=O)NS(=O)(=O)C3CC3)c3cc(Br)ccc32)cc1` (stereo not drawn) [Example 686], the figure is < 10 µM; as for `Nc1cc(-c2ccc3c(CC(=O)NS(=O)(=O)C4CC4)cn(Cc4csc5ccc(Cl)cc45)c3c2)cc([N+](=O)[O-])c1` [Example 687], < 10 µM. The same measure, in the same setting: as for `Nc1cc(N)cc(-c2ccc3c(CC(=O)NS(=O)(=O)C4CC4)cn(Cc4csc5ccc(Cl)cc45)c3c2)c1` [Example 688], the figure is < 10 µM; as for `Nc1cc(-c2ccc3c(CC(=O)NOCc4ccccc4)cn(Cc4csc5ccc(Cl)cc45)c3c2)cc([N+](=O)[O-])c1` [Example 689], > 50 µM. Take `Nc1cc(-c2ccc3c(CC(=O)NOC4CCCCO4)cn(Cc4csc5ccc(Cl)cc45)c3c2)cc([N+](=O)[O-])c1` (stereo not drawn) [Example 690]: the IC50 under setting [2] is > 50 µM. Same read-out and setting: as for `Nc1cc(-c2ccc3c(CC(=O)NO)cn(Cc4csc5ccc(Cl)cc45)c3c2)cc([N+](=O)[O-])c1` [Example 691], the figure is 10 to 50 µM.

Consider `Nc1cc(N)cc(-c2ccc3c(CC(=O)NO)cn(Cc4csc5ccc(Cl)cc45)c3c2)c1` [Example 692], for which the IC50 under setting [2] is 10 to 50 µM. For `COC(=O)C(=O)c1cn(Cc2csc3ccc(Cl)cc23)c2cc(Br)ccc12` [Example 693], the IC50 under setting [2] was > 50 µM.

Consider `OCCc1cn(Cc2csc3ccc(Cl)cc23)c2cc(Br)ccc12` [Example 694], for which the IC50 under setting [2] is > 50 µM. Take `CC(=O)OC1CCCN(c2ccc3ccn(Cc4csc5ccc(Cl)cc45)c3c2)C1` (stereo not drawn) [Example 695]: the IC50 under setting [2] fell in the range of 10 to 50 µM.

Turning to `COC(=O)C(=O)c1cn(Cc2csc3ccc(Cl)cc23)c2cc(N3CCCC(OC(C)=O)C3)ccc12` (stereo not drawn) [Example 696], the IC50 under setting [2] is 10 to 50 µM. Still for that read-out and setting: then `COC(=O)Cc1cn(Cc2csc3ccc(Cl)cc23)c2cc(N3CCCC(OC(C)=O)C3)ccc12` (stereo not drawn) [Example 697], with > 50 µM. Turning to `Nc1cc(N)cc(-c2ccc3c(CC(=O)O)cn(Cc4csc5ccc(N)cc45)c3c2)c1` [Example 702], the IC50 under setting [3] is 10 to 50 µM. On the same count and under the same terms, as for `N#Cc1ccc2scc(Cn3cc(CC(=O)O)c4ccc(-c5cc(N)cc(N)c5)cc43)c2c1` [Example 703], the figure is 10 to 50 µM; as for `Cc1ccc2c(Cn3cc(CC(=O)O)c4ccc(-c5cc(N)cc(N)c5)cc43)cccc2n1` [Example 704], > 50 µM. Same read-out and setting: as for `Nc1cc(N)cc(-c2ccc3c(CC(=O)O)cn(Cc4csc5ccc(F)cc45)c3c2)c1` [Example 705], the figure is < 10 µM; as for `Cc1nn(-c2ccccc2)nc1Cn1cc(CC(=O)O)c2ccc(-c3cc(N)cc(N)c3)cc21` [Example 706], 10 to 50 µM. Still for that read-out and setting: as for `Nc1cc(N)cc(-c2ccc3c(CC(=O)O)cn(Cc4cccc5sc(O)nc45)c3c2)c1` [Example 708], the figure is 10 to 50 µM; as for `Nc1cc(N)cc(-c2ccc3c(CC(=O)O)cn(Cc4cccc(-c5cccc(Cl)c5)c4)c3c2)c1` [Example 709], 10 to 50 µM. Turning to `Nc1cc(N)cc(-c2ccc3c(CC(=O)O)cn(Cc4cc5cc(Cl)ccc5s4)c3c2)c1` [Example 710], the concentration for half-maximal inhibition (IC50) under setting [3] was < 10 µM. Take `CCOC(=O)Cc1cn(Cc2c(-c3ccccc3)sc3ccccc23)c2cc(-c3cc([N+](=O)[O-])cc([N+](=O)[O-])c3)ccc12` [Example 711]: the IC50 under setting [4] lay in the range of 10 to 50 µM. `CCOC(=O)Cc1cn(Cc2c(-c3ccccc3)sc3ccccc23)c2cc(-c3cc(N)cc(N)c3)ccc12` [Example 712]: under setting [4], the IC50 was < 10 µM. On the same count and under the same terms, then `Nc1cc(N)cc(-c2ccc3c(CC(=O)O)cn(Cc4c(-c5ccccc5)sc5ccccc45)c3c2)c1` [Example 713], with < 10 µM; and `CCOC(=O)Cc1cn(Cc2c(-c3cccc(Cl)c3)sc3ccccc23)c2cc(-c3cc([N+](=O)[O-])cc([N+](=O)[O-])c3)ccc12` [Example 714], with 10 to 50 µM.

Consider `Nc1cc(N)cc(-c2ccc3c(CC(=O)O)cn(Cc4c(-c5cccc(Cl)c5)sc5ccccc45)c3c2)c1` [Example 715], for which the IC50 under setting [4] is < 10 µM.

With `CCOC(=O)Cc1cn(Cc2csc3ccc(OC(F)(F)F)cc23)c2cc(-c3cc([N+](=O)[O-])cc([N+](=O)[O-])c3)ccc12` [Example 717], the IC50 under setting [4] is 10 to 50 µM. The same measure, in the same setting: then `CCOC(=O)Cc1cn(Cc2csc3ccc(OC(F)(F)F)cc23)c2cc(-c3cc(N)cc(N)c3)ccc12` [Example 718], with 10 to 50 µM; and `Nc1cc(N)cc(-c2ccc3c(CC(=O)O)cn(Cc4csc5ccc(OC(F)(F)F)cc45)c3c2)c1` [Example 719], with 10 to 50 µM. For `CCOC(=O)Cc1cn(Cc2c(CC)sc3ccc(Cl)cc23)c2cc(-c3cc([N+](=O)[O-])cc([N+](=O)[O-])c3)ccc12` [Example 720], the IC50 under setting [4] is > 50 µM. Same read-out and setting: as for `CCc1sc2ccc(Cl)cc2c1Cn1cc(CC(=O)O)c2ccc(-c3cc(N)cc(N)c3)cc21` [Example 721], the figure is < 10 µM; as for `COc1cc(Cl)cc2c(Cn3cc(CC(=O)O)c4ccc(-c5cc(N)cc(N)c5)cc43)csc12` [Example 722], 10 to 50 µM; as for `Nc1cc(N)cc(-c2ccc3c(CC(=O)O)cn(Cc4csc5cc(Cl)c(F)cc45)c3c2)c1` [Example 723], < 10 µM.

In the case of `Nc1cc(N)cc(-c2ccc3c(CC(=O)O)cn(Cc4csc5c(Cl)c(Cl)ccc45)c3c2)c1` [Example 724], the IC50 under setting [4] lay in the range of 10 to 50 µM.

In the case of `Nc1cc(N)cc(-c2ccc3c(CC(=O)O)cn(Cc4csc5c(Cl)cccc45)c3c2)c1` [Example 725], under setting [4], the IC50 was in the range of 10 to 50 µM. Same read-out and setting: as for `Nc1cc(N)cc(-c2ccc3c(CC(=O)O)cn(Cc4csc5c(Cl)cc(F)cc45)c3c2)c1` [Example 726], the figure is < 10 µM; as for `Nc1cc(N)cc(-c2ccc3c(CC(=O)O)cn(Cc4csc5cccc(Cl)c45)c3c2)c1` [Example 727], < 10 µM; as for `Nc1cc(N)cc(-c2ccc3c(CC(=O)O)cn(Cc4csc5cc(Cl)ccc45)c3c2)c1` [Example 728], < 10 µM.

With `CN(C=O)c1cc(Cl)cc2c(Cn3cc(CC(=O)O)c4ccc(-c5cc(N)cc(N)c5)cc43)csc12` [Example 729], the IC50 under setting [5] was in the range of 10 to 50 µM. Regarding `CN(c1cc(Cl)cc2c(Cn3cc(CC(=O)O)c4ccc(-c5cc(N)cc(N)c5)cc43)csc12)S(C)(=O)=O` [Example 730], the concentration for half-maximal inhibition (IC50) under setting [5] fell in the range of 10 to 50 µM. With `CCNc1cc(Cl)cc2c(Cn3cc(CC(=O)O)c4ccc(-c5cc(N)cc(N)c5)cc43)csc12` [Example 731], the IC50 under setting [5] was < 10 µM. Same read-out and setting: as for `CCN(C)c1cc(Cl)cc2c(Cn3cc(CC(=O)O)c4ccc(-c5cc(N)cc(N)c5)cc43)csc12` [Example 732], the figure is < 10 µM. With `Nc1cc(N)cc(-c2ccc3c(CC(=O)O)cn(Cc4csc5ccc(Br)cc45)c3c2)c1` [Example 734], the half-inhibitory concentration (IC50) under setting [3] was in the range of 10 to 50 µM. Consider `Nc1cc(N)cc(-c2ccc3c(CC(=O)O)cn(Cc4nc5ccccc5s4)c3c2)c1` [Example 735], for which, under setting [4], the IC50 was > 50 µM. Turning to `CC(=O)c1c(CC(=O)O)c2ccccc2n1-c1ccc(N(C)Cc2ccccc2)cc1` [Example 737], the IC50 under setting [6] was in the range of 10 to 50 µM. As to `CN(Cc1ccccc1)c1ccc(-n2c(C(=O)c3ccc(-c4ccc(Cl)c(Cl)c4)cc3)c(CC(=O)O)c3ccccc32)cc1` [Example 738], the IC50 under setting [6] lay within 10 to 50 µM. On the same count and under the same terms, then `O=C(O)Cc1c(Cc2ccc(-c3ccccc3Cl)cc2)[nH]c2ccc(Br)cc12` [Example 739], with 10 to 50 µM. Still for that read-out and setting: then `O=C(O)Cc1cn(Cc2csc3ccc(Cl)cc23)c2cc(-c3ccnc(Cl)c3)ccc12` [Example 740], with 10 to 50 µM.

The values are drawn from US20090047246A1, “NOVEL INHIBITORS OF HEPATITIS C VIRUS REPLICATION” (InterMune, Inc., priority 2007, published 2009).
